Assay results taken from patent US20260217651A1 (priority 2022, published 2026).
Read-outs that look alike come from different tables or passages of the source.

Tests used:
[1] = system: SD rats; experiment: animal or person; format: in vivo, rat; conditions: iv; for minimal effective dose: Rattus norvegicus, read-out: Minimal effective anesthetic dose(mg/kg); for Onset time / Righting Reflex Duration / Sedation Duration: rat, in vivo
[2] = system: SD rats; experiment: animal or person; format: in vivo; conditions: Rattus norvegicus, iv, read-out: Minimal effective analgesic dose(mg/kg)

CCOC(=O)N(Cc1ccsc1)N1CCN(c2cc(C(C)C)c(O)c(C(C)C)c2)CC1 [Cpd-125]
minimal effective dose [1]: 10 to 20 mg/kg | Onset time [1]: 1.22 min | Righting Reflex Duration [1]: 6.87 min | Sedation Duration [1]: 53.93 min | minimal effective dose [2]: 10 to 20 mg/kg

CCOC(=O)N(c1ccc(OC)c(OC)c1)N1CCN(c2cc(C(C)C)c(O)c(C(C)C)c2)CC1 [Cpd-96]
minimal effective dose [1]: 20 to 40 mg/kg | Onset time [1]: 0.13 to 0.75 min | Righting Reflex Duration [1]: 1.32 to 43.20 min | Sedation Duration [1]: 86.20 to 295.93 min | minimal effective dose [2]: 20 to 40 mg/kg

CCOC(=O)C1(c2ccccc2)CCN(c2cc(C(C)C)c(O)c(C(C)C)c2)CC1 [Cpd-21]
minimal effective dose [1]: < 5 mg/kg | Onset time [1]: 1.35 min | Righting Reflex Duration [1]: 1.32 min | Sedation Duration [1]: 20.10 min | minimal effective dose [2]: < 5 mg/kg

CCOC(=O)N(c1cccc(Cl)c1)N1CCN(c2cc(C(C)C)c(O)c(C(C)C)c2)CC1 [Cpd-61]
minimal effective dose [1]: 10 to 20 mg/kg | Onset time [1]: 0.55 to 1.25 min | Righting Reflex Duration [1]: 4.15 to 41.88 min | Sedation Duration [1]: 89.98 to 162.23 min | minimal effective dose [2]: 10 to 20 mg/kg

CCOC(=O)N(c1cccc(C)c1)N1CCN(c2cc(C(C)C)c(O)c([C@H](C)C3CC3)c2)CC1 [Cpd-70]
minimal effective dose [1]: 10 to 20 mg/kg | Onset time [1]: 0.38 to 1.07 min | Righting Reflex Duration [1]: 5.02 to 39.35 min | Sedation Duration [1]: 48.32 to 106.60 min | minimal effective dose [2]: 10 to 20 mg/kg

CCOC(=O)N(c1ccc(OCC(C)C)cc1)N1CCN(c2cc(C(C)C)c(O)c(C(C)C)c2)CC1 [Cpd-104]
minimal effective dose [1]: 20 to 40 mg/kg | Onset time [1]: 0.42 min | Righting Reflex Duration [1]: 59.33 min | Sedation Duration [1]: 377.87 min | minimal effective dose [2]: 20 to 40 mg/kg

CCOC(=O)N(c1ccc(OC)cc1)N1CCN(c2cc(C(C)C)c(O)c([C@@H](C)C3CC3)c2)CC1 [Cpd-107]
minimal effective dose [1]: 5 to 10 mg/kg | Onset time [1]: 0.42 to 1.52 min | Righting Reflex Duration [1]: 0.72 to 34.8 min | Sedation Duration [1]: 34.37 to 73.58 min | minimal effective dose [2]: 10 to 20 mg/kg

CCOC(=O)C1(c2cccs2)CCN(c2cc(C(C)C)c(O)c(C(C)C)c2)CC1 [Cpd-24]
minimal effective dose [1]: 5 to 10 mg/kg | Onset time [1]: 0.85 min | Righting Reflex Duration [1]: 11.60 min | Sedation Duration [1]: 21.70 min | minimal effective dose [2]: 5 to 10 mg/kg

COc1ccc(C2(C(=O)OC(C)C)CCN(c3cc(C(C)C)c(O)c(C(C)C)c3)CC2)cc1 [Cpd-123]
minimal effective dose [1]: 20 to 40 mg/kg | Onset time [1]: 0.77 min | Righting Reflex Duration [1]: 24.08 min | Sedation Duration [1]: 75.50 min | minimal effective dose [2]: 20 to 40 mg/kg

CCOC(=O)C1(c2cccc(OC)c2)CCN(c2cc(C(C)C)c(O)c(C(C)C)c2)CC1 [Cpd-39]
minimal effective dose [1]: 10 to 20 mg/kg | Onset time [1]: 0.73 to 1.07 min | Righting Reflex Duration [1]: 7.45 to 24.00 min | Sedation Duration [1]: 34.33 to 39.48 min | minimal effective dose [2]: 10 to 20 mg/kg

CCCC(=O)N(c1ccccc1)C1CCN(c2cc(C(C)C)c(O)c(C(C)C)c2)CC1 [Cpd-13]
minimal effective dose [1]: 5 to 10 mg/kg | Onset time [1]: 0.35 min | Righting Reflex Duration [1]: 20.27 min | Sedation Duration [1]: 41.57 min | minimal effective dose [2]: 5 to 10 mg/kg

CCOC(=O)C1(c2ccccc2)CCN(c2cc(C(C)C)c(O)c([C@H](C)C3CC3)c2)CC1 [Cpd-25]
minimal effective dose [1]: 5 to 10 mg/kg | Onset time [1]: 1.28 to 2.95 min | Righting Reflex Duration [1]: 3.45 to 6.43 min | Sedation Duration [1]: 17.48 to 23.03 min | minimal effective dose [2]: 5 to 10 mg/kg

CCOC(=O)N(c1ccccc1)N1CCN(c2cc(C(C)C)c(O)c(C(C)C3CC3)c2)CC1 (centres unmarked) [Cpd-53]
minimal effective dose [1]: < 5 mg/kg | Onset time [1]: 0.47 to 1.27 min | Righting Reflex Duration [1]: 2.00 to 37.20 min | Sedation Duration [1]: 27.75 to 167.40 min | minimal effective dose [2]: 5 to 10 mg/kg
